# Values joined by “and” are separate entries in the source; they are usually repeats but may differ in a detail not shown here. Equal entries are not always repeated.
# Experiments:
# [1] = molecular target: T1, mTORC1 (mTOR/RAPTOR/LST8 complex) (Homo sapiens, UniProt P42345); assay: mTORC1 in vitro kinase assay (Phos-tag gel); format: biochemical; details: 200 μM 1938
# T1 construct: made in house
# Experimental: 133 protein kinases and 7 lipid kinases were counterscreened, with 1938 used at 1 μM, using the Adapta, Lantha and Z-LYTE assays (SelectScreen Kinase Profiling Service; Thermofisher – experimental details of these assays can be found here: https://www.thermofisher.com/uk/en/home/industrial/pharma-biopharma/drug-discovery-development/target-and-lead-identification-and-validation/kinasebiology/kinase-activity-assays.html. The tree represention in KinMap[59] generated courtesy of Cell Signaling Technology, Inc. (www.cellsignal.com). mTORC1 (mTOR/RAPTOR/LST8) protein complex and ATM kinase and substrates were produced as previously described[57],[60]. Screening of 1938 was conducted using SuperSep Phos-Tag 50 μmol/l 100 x 100 x 6.6 mm 17-well (192-18001/199-18011) gels. For ATM assays, 100 nM ATM was incubated for 30 min at 30°C with 5 μM GST-p53 and 1 mM ATP, in the absence or presence of 200 μM 1938 in ATM Kinase Buffer (50 mM HEPES pH 7.5, 100 mM NaCl, 10% glycerol, 2 mM […], 5 mM MgCl2). As a positive control for ATM activation, the same reaction was carried out with 100 nM ATM/5 μM GST-p53/1 mM ATP in the presence of 100 nM Mre11-Rad50-Nbs1 (MRN) complex, a known activator of ATM[61]. […] Gels were then stained using InstantBlue™ Coomassie, and quantified using BioRad Image Lab Software. […]
# mouse heart = assay: In vivo model of ischaemia reperfusion injury in mice; details: 10 mg/kg 1938 i.v., heart after 15 min; single mice
# [2] = tested on: p110α-mutants D603K, D603A, 603DCN_AAA605, D603A/F1016S, L1006R, F1016S, L1006R/F1016S; assay: ADP-Glo catalytic activity, mutants in the 1938-binding pocket; format: biochemical, human; details: all mutants
# Experimental: Expression and purification of mutants resistant to 1938 were performed as follows. Sf9 insect cells (1.5 L) were cultured in Insect-XPRESS with L-Glutamine medium (Lonza BE12-730Q) at 27°C and co-infected with baculovirus encoding the regulatory p85α-subunit [LMB-MRC plasmid OP809] and the catalytic subunit p110α-D603K [LMB-MRC plasmid OP895], D603A [OP900], 603DCN_AAA605 [OP894], D603A/F1016S [OP901], L1006R [OP897], F1016S [OP898], L1006R/F1016S [OP899] at a density of 1.6 × 10^6 cells/ml. The culture was incubated for 47 h after infection, cells were collected, flash-frozen in liquid N2 and stored at -80°C. For purification, cell pellets were resuspended in 50 ml of lysis buffer (20 mM Tris, 150 mM NaCl, 5% glycerol, 1 mM TCEP, pH 8.0) containing EDTA-free Protease inhibitor tablets (1 tablet per 50 ml of solution), 0.5 mM PEFA and 5 μl of Piece® Universal Nuclease For Cell Lysis. The suspension was sonicated for 3 min on ice, with 10 sec on and 10 sec off. […]
# For characterisation of the effects of 1938 on in vitro PI3K enzymology, all reactions were performed at room temperature with 384 white-polystyrene plates (Corning #3574). […] Data was expressed as velocity (nmol of ADP generated/nmol of enzyme/sec). […] Luminescence was read using a PHERAstar® plate reader with software version 5.41, and analyses were performed using GraphPad Prism 8/9.
compound,measurement,setting,value
CCN1CCN(c2ccc(Nc3cc(Nc4cccc5c4N(C(C)=O)CC5)ccn3)cc2)CC1 [Compound 1938],effect on mTORC1 activity,[1],did not affect the activity
same,Western blot pAkt in vivo: pAkt/tAkt,mouse heart,7.58 and 5.35 and 5.18
same,activation of 1938-binding pocket p110α-mutants,[2],resistant to activation by 1938
